Target: T1, MDM2 (Homo sapiens, UniProt Q00987)
T1 construct: MDM2 (Abcam, ab167941)
Assay: fluorescence polarization competition with FITC-p53 peptide
Format: binding
Source text: fluorescence polarization competition with FITC-p53 peptide on MDM2 | analysis of the interaction of N201 with MDM2 instead of with fluorescein isothiocyanate (FITC)–p53.

T1 sequence (Q00987 whole entry): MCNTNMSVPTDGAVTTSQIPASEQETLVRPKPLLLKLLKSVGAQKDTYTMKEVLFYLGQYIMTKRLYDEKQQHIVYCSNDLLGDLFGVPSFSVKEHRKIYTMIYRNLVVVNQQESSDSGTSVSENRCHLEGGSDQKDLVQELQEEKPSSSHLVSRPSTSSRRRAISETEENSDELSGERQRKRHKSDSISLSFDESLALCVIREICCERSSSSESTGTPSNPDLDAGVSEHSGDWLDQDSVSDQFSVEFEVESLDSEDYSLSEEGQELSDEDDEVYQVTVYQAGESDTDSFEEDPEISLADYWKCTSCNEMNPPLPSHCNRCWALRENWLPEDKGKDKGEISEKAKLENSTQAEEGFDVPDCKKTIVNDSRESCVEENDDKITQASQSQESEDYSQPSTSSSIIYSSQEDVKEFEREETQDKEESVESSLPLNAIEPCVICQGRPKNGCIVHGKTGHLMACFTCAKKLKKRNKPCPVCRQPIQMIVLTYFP

Compound	IC50
COc1ccc(C2=NC(c3ccc(Cl)cc3)C(c3ccc(Cl)cc3)N2C(=O)N2CCN(CCO)CC2)c(OC(C)C)c1 (centres unmarked) [N201]	130 nM
COc1ccc(C2=NC(c3ccc(Cl)cc3)C(c3ccc(Cl)cc3)N2C(=O)N2CCN(CCO[C@@H]3O[C@H](CO)[C@H](O)[C@H](O)[C@H]3O)CC2)c(OC(C)C)c1 (some centres unmarked) [N201-gal]	200 nM

From paper PMC12484856, “A Self-Assembling Senolytic Prodrug with Enhanced Bioavailability and Selective Activation for Targeting Senescent Retinal Pigment Epithelium” (Biomaterials Research, 2025)
